# Source: ChEMBL document CHEMBL4261615, “Design, synthesis, biological evaluation and cellular imaging of imidazo[4,5-b]pyridine derivatives as potent and selective TAM inhibitors” (Bioorg Med Chem, 2018)
# Columns and labels:
# [1] = biological target: T1, Tyrosine-protein kinase receptor UFO (Homo sapiens, UniProt P30530); assay: Inhibition of recombinant His-tagged human Axl (473 to end residues) cytoplasmic domain expressed in insect system using poly (Glu-Ala-Tyr) peptide as substrate after 5 mins in presence of ADP by fluorescence analysis
# T1 sequence (P30530 whole entry): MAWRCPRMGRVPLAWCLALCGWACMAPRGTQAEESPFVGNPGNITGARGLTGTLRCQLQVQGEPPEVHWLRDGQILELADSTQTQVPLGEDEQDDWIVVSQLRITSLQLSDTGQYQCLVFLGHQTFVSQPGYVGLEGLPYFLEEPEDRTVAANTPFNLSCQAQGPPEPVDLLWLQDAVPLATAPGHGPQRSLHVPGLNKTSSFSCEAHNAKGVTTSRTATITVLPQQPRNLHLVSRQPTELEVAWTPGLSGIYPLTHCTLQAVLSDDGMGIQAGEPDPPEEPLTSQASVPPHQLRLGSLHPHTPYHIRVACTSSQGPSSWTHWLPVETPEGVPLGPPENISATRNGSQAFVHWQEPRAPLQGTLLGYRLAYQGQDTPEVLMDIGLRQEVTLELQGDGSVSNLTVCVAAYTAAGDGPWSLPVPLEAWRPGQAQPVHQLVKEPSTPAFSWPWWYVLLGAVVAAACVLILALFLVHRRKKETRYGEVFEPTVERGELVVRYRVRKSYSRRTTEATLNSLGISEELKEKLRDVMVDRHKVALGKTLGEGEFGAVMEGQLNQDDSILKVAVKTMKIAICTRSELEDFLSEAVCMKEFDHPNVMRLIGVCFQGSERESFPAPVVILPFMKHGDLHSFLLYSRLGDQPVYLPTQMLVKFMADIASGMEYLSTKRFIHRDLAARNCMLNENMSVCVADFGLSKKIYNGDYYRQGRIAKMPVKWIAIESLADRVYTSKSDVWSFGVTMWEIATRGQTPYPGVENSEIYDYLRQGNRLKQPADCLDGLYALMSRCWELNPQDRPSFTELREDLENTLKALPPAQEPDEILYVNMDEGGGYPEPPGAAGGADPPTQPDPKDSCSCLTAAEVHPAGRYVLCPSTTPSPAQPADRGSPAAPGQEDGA
# [2] = biological target: Tyrosine-protein kinase receptor UFO (Homo sapiens) (UniProt P30530); assay: Binding affinity to human AXL (R497 to Y821 residues) expressed in bacterial expression system assessed as fraction of unbound kinase to substrate at 1 uM after 1 hr by KinomeScan assay
# [3] = biological target: T2, Aurora kinase A (Homo sapiens) (UniProt O14965); assay: Binding affinity to wild-type human partial length AURKA (E122 to K401 residues) expressed in mammalian expression system assessed as fraction of unbound kinase to substrate at 0.1 uM after 1 hr by KinomeScan assay
# T2 sequence (whole entry): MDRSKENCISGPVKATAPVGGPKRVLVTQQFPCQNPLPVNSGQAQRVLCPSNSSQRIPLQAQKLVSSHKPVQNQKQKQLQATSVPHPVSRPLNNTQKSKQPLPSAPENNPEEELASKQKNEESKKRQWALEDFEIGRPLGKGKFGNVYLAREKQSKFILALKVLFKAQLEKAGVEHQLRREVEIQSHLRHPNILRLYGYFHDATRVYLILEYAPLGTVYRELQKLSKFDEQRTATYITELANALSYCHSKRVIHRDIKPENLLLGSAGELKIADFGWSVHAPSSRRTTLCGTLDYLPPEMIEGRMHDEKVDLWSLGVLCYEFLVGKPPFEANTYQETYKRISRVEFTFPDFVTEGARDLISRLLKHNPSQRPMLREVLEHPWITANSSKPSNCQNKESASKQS
# [4] = biological target: T3, Tyrosine-protein kinase Mer (Homo sapiens) (UniProt Q12866); assay: Binding affinity to wild-type partial length human MER (R557 to L884 residues) expressed in bacterial expression system assessed as fraction of unbound kinase to substrate at 0.1 uM after 1 hr by KinomeScan assay
# T3 sequence (whole entry): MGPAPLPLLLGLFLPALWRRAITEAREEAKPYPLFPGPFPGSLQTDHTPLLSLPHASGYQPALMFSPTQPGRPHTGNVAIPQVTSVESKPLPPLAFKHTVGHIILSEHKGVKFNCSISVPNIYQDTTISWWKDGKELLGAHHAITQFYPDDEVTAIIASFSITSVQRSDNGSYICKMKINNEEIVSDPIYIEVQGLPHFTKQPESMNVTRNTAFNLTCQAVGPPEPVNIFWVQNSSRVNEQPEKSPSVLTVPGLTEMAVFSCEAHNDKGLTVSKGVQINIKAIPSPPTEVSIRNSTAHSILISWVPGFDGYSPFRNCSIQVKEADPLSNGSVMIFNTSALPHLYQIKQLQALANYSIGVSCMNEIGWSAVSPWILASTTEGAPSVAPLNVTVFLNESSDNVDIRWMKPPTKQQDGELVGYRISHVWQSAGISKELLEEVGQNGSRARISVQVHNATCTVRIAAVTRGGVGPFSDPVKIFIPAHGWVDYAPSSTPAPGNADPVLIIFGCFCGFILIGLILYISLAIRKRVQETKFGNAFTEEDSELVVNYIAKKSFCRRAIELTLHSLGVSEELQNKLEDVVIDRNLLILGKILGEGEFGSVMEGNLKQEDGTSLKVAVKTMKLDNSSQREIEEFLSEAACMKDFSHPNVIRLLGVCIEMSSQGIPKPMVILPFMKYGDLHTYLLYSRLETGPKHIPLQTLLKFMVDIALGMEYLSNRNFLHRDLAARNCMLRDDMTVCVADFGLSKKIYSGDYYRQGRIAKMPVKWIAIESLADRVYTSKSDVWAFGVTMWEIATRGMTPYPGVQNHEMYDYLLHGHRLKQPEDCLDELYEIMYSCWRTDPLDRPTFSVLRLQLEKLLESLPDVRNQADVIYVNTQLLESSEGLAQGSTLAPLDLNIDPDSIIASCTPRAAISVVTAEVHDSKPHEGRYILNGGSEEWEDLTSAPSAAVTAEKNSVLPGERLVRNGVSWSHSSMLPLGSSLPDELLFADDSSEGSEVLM
# [5] = biological target: Hepatocyte growth factor receptor (Homo sapiens) (UniProt P08581); assay: Binding affinity to human MET (D1010 to S1367 residues) expressed in bacterial expression system assessed as fraction of unbound kinase to substrate at 1 uM after 1 hr by KinomeScan assay
# Hepatocyte growth factor receptor (Homo sapiens), sequence (P08581 whole entry, the tested form may be a part): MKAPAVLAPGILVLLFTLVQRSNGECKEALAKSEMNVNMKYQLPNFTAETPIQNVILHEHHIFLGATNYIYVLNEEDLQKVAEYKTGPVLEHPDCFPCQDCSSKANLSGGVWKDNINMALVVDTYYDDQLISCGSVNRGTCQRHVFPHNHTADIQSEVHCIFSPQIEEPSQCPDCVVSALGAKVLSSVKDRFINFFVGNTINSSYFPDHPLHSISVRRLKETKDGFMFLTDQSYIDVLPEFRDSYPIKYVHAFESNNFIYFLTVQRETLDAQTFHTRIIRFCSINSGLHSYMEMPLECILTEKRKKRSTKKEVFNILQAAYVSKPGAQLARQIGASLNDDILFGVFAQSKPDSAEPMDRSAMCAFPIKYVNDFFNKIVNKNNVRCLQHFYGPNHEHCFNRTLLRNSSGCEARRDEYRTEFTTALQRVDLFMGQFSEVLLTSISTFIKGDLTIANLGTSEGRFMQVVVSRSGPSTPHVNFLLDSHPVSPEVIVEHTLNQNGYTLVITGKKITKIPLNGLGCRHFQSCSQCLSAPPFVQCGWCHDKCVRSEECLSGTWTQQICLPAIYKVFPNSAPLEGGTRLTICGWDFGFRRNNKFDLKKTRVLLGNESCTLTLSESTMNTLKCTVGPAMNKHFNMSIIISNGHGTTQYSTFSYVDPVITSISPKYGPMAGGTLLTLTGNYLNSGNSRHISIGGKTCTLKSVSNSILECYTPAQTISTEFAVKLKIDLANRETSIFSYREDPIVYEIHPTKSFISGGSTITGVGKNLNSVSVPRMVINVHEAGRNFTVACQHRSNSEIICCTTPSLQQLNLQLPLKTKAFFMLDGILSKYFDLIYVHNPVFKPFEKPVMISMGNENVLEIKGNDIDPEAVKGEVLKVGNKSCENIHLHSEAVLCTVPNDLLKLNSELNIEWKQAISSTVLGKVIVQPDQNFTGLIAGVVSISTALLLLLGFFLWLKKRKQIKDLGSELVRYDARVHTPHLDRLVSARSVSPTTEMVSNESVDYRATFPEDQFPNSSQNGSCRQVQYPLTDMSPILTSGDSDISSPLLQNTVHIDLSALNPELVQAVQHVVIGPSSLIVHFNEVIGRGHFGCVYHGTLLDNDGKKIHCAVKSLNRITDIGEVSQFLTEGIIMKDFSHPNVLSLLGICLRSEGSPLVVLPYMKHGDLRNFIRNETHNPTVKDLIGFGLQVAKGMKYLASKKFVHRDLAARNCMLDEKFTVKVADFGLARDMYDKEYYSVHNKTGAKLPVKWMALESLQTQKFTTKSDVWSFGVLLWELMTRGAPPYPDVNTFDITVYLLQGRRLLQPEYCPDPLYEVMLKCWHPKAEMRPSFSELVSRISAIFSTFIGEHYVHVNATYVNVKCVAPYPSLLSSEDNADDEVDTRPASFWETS
# [6] = biological target: Glycogen synthase kinase-3 beta (Homo sapiens) (UniProt P49841); assay: Binding affinity to full length wild type human GSK3beta (M1 to T433 residues) expressed in mammalian expression system assessed as fraction of unbound kinase to substrate at 1 uM after 1 hr by KinomeScan assay
# Glycogen synthase kinase-3 beta (Homo sapiens), sequence (P49841 whole entry, looked up, the tested form may be a part): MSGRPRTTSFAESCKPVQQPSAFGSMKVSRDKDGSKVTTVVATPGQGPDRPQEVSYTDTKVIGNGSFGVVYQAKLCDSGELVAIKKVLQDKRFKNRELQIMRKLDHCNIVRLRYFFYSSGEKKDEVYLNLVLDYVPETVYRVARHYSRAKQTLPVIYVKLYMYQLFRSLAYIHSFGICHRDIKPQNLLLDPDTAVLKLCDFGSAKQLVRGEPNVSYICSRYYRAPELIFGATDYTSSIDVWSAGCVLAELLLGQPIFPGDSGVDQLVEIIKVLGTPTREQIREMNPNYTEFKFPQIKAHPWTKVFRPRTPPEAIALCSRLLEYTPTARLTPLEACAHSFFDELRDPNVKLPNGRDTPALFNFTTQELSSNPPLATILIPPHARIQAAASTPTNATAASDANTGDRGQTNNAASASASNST
IC50 [1] [nM],Activity [2] [%],Activity [3] [%],Activity [4] [%],Activity [5] [%],Activity [6] [%],Structure (SMILES)
> 100000,67,1,17,94.5,5,Cc1cnc2[nH]cnc2c1Oc1ccc(NC(=O)c2cccn(-c3ccc(F)cc3)c2=O)cc1F
70,90,1,92.3,96.7,0,CC(C)c1nc2c(Oc3ccc(NC(=O)c4cccn(-c5ccc(F)cc5)c4=O)cc3F)ccnc2[nH]1
2000,52,7,4,82,1,O=C(Nc1ccc(Oc2c(Br)cnc3[nH]cnc23)c(F)c1)c1cccn(-c2ccc(F)cc2)c1=O
0.77,90.7,5,87,96,5,O=C(Nc1ccc(Oc2ccnc3[nH]cnc23)c(F)c1)c1cccn(-c2ccc(F)cc2)c1=O
